Source: patent US20210198277A1, “AMINE-SUBSTITUTED ARYL OR HETEROARYL COMPOUNDS” (Epizyme, Inc., priority 2016, published 2021)
pIC50: −log10 of the molar value.

Each compound was assayed against T1, human EHMT2 913-1193 (Homo sapiens, UniProt Q96KQ7) (assay: EHMT2 enzyme assay on histone peptide substrate (EHMT2 PEP)). Conditions: Table VI; read-out: EHMT2 PEP IC50.
T1 construct: recombinant purified human EHMT2 913-1193, Viva; purchased Viva
T1 sequence (Q96KQ7 913-1193): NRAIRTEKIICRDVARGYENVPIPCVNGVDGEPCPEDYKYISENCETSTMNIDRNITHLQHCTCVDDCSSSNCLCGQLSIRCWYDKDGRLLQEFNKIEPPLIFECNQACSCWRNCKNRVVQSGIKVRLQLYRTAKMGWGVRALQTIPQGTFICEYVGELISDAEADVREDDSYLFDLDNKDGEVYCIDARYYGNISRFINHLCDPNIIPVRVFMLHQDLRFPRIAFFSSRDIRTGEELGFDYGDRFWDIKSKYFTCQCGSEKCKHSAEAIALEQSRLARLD
Assay type: biochemical
Method in brief: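 10-pt 3-fold series, 50 μM top final, 2% DMSO; 30 min preinc w/ 0.031 nM enzyme; pH 7.5 Bicine/TCEP buffer; ^3H-SAM + biotin-histone peptide, 60 min RT; SAM quench; streptavidin Flashplate capture, TopCount.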
In the case of `CNc1cc(C)nc(Nc2ccc(OC)c(OCC(O)CN3CCCC3)c2)n1` (stereo in doubt) [Compound 906, (2S)-1-(2-methoxy-5-[[4-methyl-6-(methylamino)pyrimidin-2-yl]amino]phenoxy)-3-(pyrrolidin-1-yl)propan-2-ol], the pIC50 was > 7.00. With `COc1cnc(Nc2cccc3[nH]nnc23)cc1OCCCN1CCCC1` [Compound 619] the pIC50 was < 5.00. For `CCN1CC(COc2cc(Nc3cccn4cnnc34)ncc2OC)C1` [Compound 620], the pIC50 was < 5.00. For `CNc1cc(C)nc(Nc2c[nH]c(=O)c(OCCCN3CCCC3)c2)n1` [Compound 621], the pIC50 was < 5.00. For `CNc1cc(C)nc(Nc2cc(OCCCN3CCCC3)c3nncn3c2)n1` [Compound 622], the pIC50 was 5.00 to 6.00. Compound `CNc1cc(C)nc(Nc2cc(OCCCN3CCCC3)c3ncnn3c2)n1` [Compound 623] has a pIC50 of 5.00 to 6.00. In the case of `CNc1cc(C)nc(Nc2cc(OCCCN3CCCC3)c3[nH]nnc3c2)n1` [Compound 624], the pIC50 was 6.00 to 7.00. With `COc1cc2c(C3CCN(C)CC3)cc(N3CCCC3)nc2cc1OCCCN1CCCC1` [Compound 625] the pIC50 was > 7.00. For `COc1cc2c(C3CCN([C@H]4CCOC4)CC3)cc(C)nc2cc1OCCCN1CCCC1` [Compound 864], the pIC50 was > 7.00. In the case of `CCNc1cc(C2CCOCC2)c2cc(OC)c(OCCCN3CCCC3)cc2n1` [Compound 865], the pIC50 was > 7.00. For `CNc1cc(C2CCN([C@@H]3CCOC3)CC2)c2cc(OC)c(OCCCN3CCCC3)cc2n1` [Compound 866], the pIC50 was > 7.00. For `CNc1cc(C2CCN([C@H]3CCOC3)CC2)c2cc(OC)c(OCCCN3CCCC3)cc2n1` [Compound 867], the pIC50 was > 7.00. `COc1ccc(Nc2nc(C)cc(C3CCOCC3)n2)cc1OCCCN1CCCC1` [Compound 870] was tested, and the pIC50 was < 5.00. `CNc1cc(C)nc(Nc2ccc(OC)c(C(=O)NCc3ccccc3)c2)n1` [Compound 871] was tested, and the pIC50 was < 5.00. For `CNc1cc(C)nc(Nc2ccc(OC)c(C(=O)NC3CCN(C)CC3)c2)n1` [Compound 873], the pIC50 was < 5.00. In the case of `CNc1cc(C)nc(Nc2ccc(CNC(=O)c3ccccc3)c(OC)c2)n1` [Compound 876], the pIC50 was < 5.00. With `CNc1cc(C)nc(Nc2ccc(C(=O)NCc3ccccc3)c(OC)c2)n1` [Compound 877] the pIC50 was < 5.00. For `CNc1cc(C)nc(Nc2cnc(OC)c(OC[C@@H](O)CN3CCCC3)c2)n1` [Compound 881], the pIC50 was 6.00 to 7.00. `CNc1cc(C)nc(Nc2cnc(OC)c(OC[C@H](O)CN3CCCC3)c2)n1` [Compound 882] was tested, and the pIC50 was 6.00 to 7.00. In the case of `COc1ncc(Nc2nc(C)cc(NCC3COC3)n2)cc1OC[C@@H](O)CN1CCCC1` [Compound 883], the pIC50 was < 5.00. With `COc1ncc(Nc2nc(C)cc(NCC3COC3)n2)cc1OC[C@H](O)CN1CCCC1` [Compound 884] the pIC50 was < 5.00. Work on `CNc1cc(C)nc(Nc2cc(OC[C@@H](O)CN3CCCC3)c(OC)cn2)n1` [Compound 885] yielded a pIC50 of 5.00 to 6.00. `CNc1cc(C)nc(Nc2cc(OC[C@H](O)CN3CCCC3)c(OC)cn2)n1` [Compound 886] gave a pIC50 of 5.00 to 6.00. `CNC(=O)CCNc1cc(C)nc(Nc2cnc(OC)c(OCCCN3CCCC3)c2)n1` [Compound 887] was tested, and the pIC50 was 6.00 to 7.00. In the case of `CNC(=O)N1CC(CNc2cc(C)nc(Nc3cnc(OC)c(OCCCN4CCCC4)c3)n2)C1` [Compound 888], the pIC50 was 6.00 to 7.00. With `CNc1cc(C)nc(Nc2ccc(OC)c(OCCCc3nc(Cl)c[nH]3)c2)n1` [Compound 890] the pIC50 was < 5.00. In the case of `CNc1cc(C)nc(Nc2ccc(OC)c(OCCCc3nc(Cl)cn3C)c2)n1` [Compound 891], the pIC50 was < 5.00. With `CNS(=O)(=O)CCNc1cc(C)nc(Nc2ccc(OC)c(OCCCN3CCCC3)c2)n1` [Compound 892] the pIC50 was > 7.00. Work on `COc1ccc(Nc2nc(C)cc(NCCS(=O)(=O)N(C)C)n2)cc1OCCCN1CCCC1` [Compound 893] yielded a pIC50 of 6.00 to 7.00. `COc1cnc(Nc2cc(NCC3COC3)cnn2)cc1OCCCN1CCCC1` [Compound 894] was tested, and the pIC50 was 6.00 to 7.00. With `COc1cc2cc(C#N)c(C)nc2cc1OCCCN1CCCC1` [Compound 895] the pIC50 was < 5.00. For `COc1cc2cc(F)c(C)nc2cc1OCCCN1CCCC1` [Compound 896], the pIC50 was < 5.00. For `CNc1nc2cc(OCCCN3CCCC3)c(OC)cc2cc1F` [Compound 897], the pIC50 was < 5.00. For `CNC(=O)C1CCN(c2cc3nc(NC)cc(C)c3cc2OC)C1` (centres unmarked) [Compound 900], the pIC50 was < 5.00. With `CNc1cc(C2CCOCC2)c2cc(OC)c(OCCCN3CC(O)C3)cc2n1` [Compound 902] the pIC50 was > 7.00. Work on `CNc1nc2cc(OCCCN3CCCC3)c(OC)cc2cc1Cl` [Compound 903] yielded a pIC50 of 5.00 to 6.00. For `CNc1cc(C)nc(Nc2ccc(OC)c(C#CCN3CCOCC3)c2)n1` [Compound 904], the pIC50 was < 5.00. `CNc1cc(C)nc(Nc2ccc(OC)c(OC[C@@H](O)CN3CCCC3)c2)n1` [Compound 905] showed a pIC50 of 6.00 to 7.00. For `CNc1ccnc(Nc2ccc(OC)c(OC[C@@H](O)CN3CCC3)c2)n1` [Compound 907], the pIC50 was 5.00 to 6.00. In the case of `CNc1ccnc(Nc2ccc(OC)c(OC[C@H](O)CN3CCC3)c2)n1` [Compound 908], the pIC50 was > 7.00. In the case of `CNc1ccnc(Nc2cnc(OC)c(OC[C@@H]3CCN(C)C3)c2)n1` [Compound 912], the pIC50 was 6.00 to 7.00. Compound `CNc1ccnc(Nc2cnc(OC)c(OCCCN3CCC3)c2)n1` [Compound 914] has a pIC50 of 6.00 to 7.00. `CNCCCOc1cc(Nc2nccc(NC)n2)ccc1OC` [Compound 916] showed a pIC50 of 6.00 to 7.00. `CNCCCOc1cc(Nc2nccc(NC)n2)cnc1OC` [Compound 917] was tested, and the pIC50 was 5.00 to 6.00. `CNC[C@@H](O)COc1cc(Nc2nccc(NC)n2)cnc1OC` [Compound 918] gave a pIC50 of 5.00 to 6.00. `CNc1ccnc(Nc2ccc(OC)c(OC[C@@H](CN3CCCC3)OC)c2)n1` [Compound 919] gave a pIC50 of 5.00 to 6.00. Compound `CNc1ccnc(Nc2ccc(OC)c(OC[C@H](CN3CCCC3)OC)c2)n1` [Compound 920] has a pIC50 of 6.00 to 7.00. `CNC[C@H](COc1cc(Nc2nccc(NC)n2)ccc1OC)OC` [Compound 921] was tested, and the pIC50 was < 5.00. In the case of `CNC[C@@H](COc1cc(Nc2nccc(NC)n2)ccc1OC)OC` [Compound 922], the pIC50 was 5.00 to 6.00. `CCN1CC[C@@H](COc2cc(Nc3nccc(NC)n3)ccc2OC)C1` [Compound 927] gave a pIC50 of 6.00 to 7.00. In the case of `CNc1ccnc(Nc2ccc(OC)c(OC[C@@H]3CCN(C4CC4)C3)c2)n1` [Compound 928], the pIC50 was 6.00 to 7.00. `CNc1ccnc(Nc2ccc(OC)c(OC[C@H]3CN(C)CCO3)c2)n1` [Compound 931] was tested, and the pIC50 was < 5.00. In the case of `CCN1CCO[C@@H](COc2cc(Nc3nccc(NC)n3)ccc2OC)C1` [Compound 932], the pIC50 was < 5.00. `CNc1ccnc(Nc2ccc(OC)c(OC[C@H]3CNCCO3)c2)n1` [Compound 933] was tested, and the pIC50 was < 5.00. In the case of `CNc1ccnc(Nc2ccc(OC)c(OC[C@@H]3CN(C)CCO3)c2)n1` [Compound 936], the pIC50 was < 5.00. In the case of `CCN1CCO[C@H](COc2cc(Nc3nccc(NC)n3)ccc2OC)C1` [Compound 937], the pIC50 was < 5.00. `CNc1ccnc(Nc2ccc(OC)c(OC[C@@H]3CNCCO3)c2)n1` [Compound 938] was tested, and the pIC50 was < 5.00. `CNc1ccnc(Nc2ccc(OC)c(OC[C@@H](C)CN3CCC3)c2)n1` [Compound 943] gave a pIC50 of 5.00 to 6.00. `CNc1ccnc(Nc2ccc(OC)c(OC[C@H](C)CN3CCC3)c2)n1` [Compound 945] showed a pIC50 of 6.00 to 7.00. With `CCN1CC[C@@H](COc2cc(Nc3nc(C)cc4[nH]ncc34)ncc2OC)C1` [Compound 947] the pIC50 was > 7.00. `CNc1cc(C)nc(Nc2cnc(OC)c(OCCCN3CCC3)c2)n1` [Compound 949] was tested, and the pIC50 was 6.00 to 7.00. With `COc1cc2c(C3CCN(C)CC3)nc(N3CCCC3)nc2cc1OCCCN1CC(O)C1` [Compound 950] the pIC50 was 6.00 to 7.00. `CCN1CC(COc2cc3nc(NC)nc(C4CCN(C)CC4)c3cc2OC)C1` [Compound 951] showed a pIC50 of 6.00 to 7.00. `CNc1nc(C2=CC(C)(C)NC(C)(C)C2)c2cc(OC)c(OCCCN3CCCC3)cc2n1` [Compound 961] showed a pIC50 of 5.00 to 6.00. In the case of `CNc1cc(C)nc(Nc2ccc(OC)c(OC[C@H](O)CNC3CCC3)c2)n1` [Compound 962], the pIC50 was 6.00 to 7.00. With `CNc1cc(C)nc(Nc2cnc(OC)c(OC[C@H](O)CN3CCC3)c2)n1` [Compound 963] the pIC50 was > 7.00. `CNCCNCc1cc(Nc2nc(C)cc(NC)n2)ccc1OC` [Compound 964] gave a pIC50 of 6.00 to 7.00. For `CNc1cc(C)nc(Nc2ccc(OC)c(CNCCN3CCC3)c2)n1` [Compound 965], the pIC50 was > 7.00. Work on `CNc1ccnc(Nc2cnc(OC)c(OC[C@@H]3CCN(C4CCC4)C3)n2)n1` [Compound 974] yielded a pIC50 of 6.00 to 7.00. `CNc1cc(C)nc(Nc2ccc(OC)c(OC[C@H](O)CN3CC(C)C3)c2)n1` [Compound 985] gave a pIC50 of 6.00 to 7.00. `CNc1cc(C)nc(Nc2ccc(OC)c(OC[C@H](O)CN3CC(F)C3)c2)n1` [Compound 986] showed a pIC50 of 6.00 to 7.00. With `CNc1cc(C)nc(Nc2ccc(OC)c(CNCCN(C)C)c2)n1` [Compound 990] the pIC50 was > 7.00. Work on `CNc1ccnc(Nc2ccc(OC)c(OCC(C)(O)CN3CCC3)c2)n1` (centres unmarked) [Compound 1005] yielded a pIC50 of 5.00 to 6.00. For `CCN1CCC(O)(COc2cc(Nc3nccc(NC)n3)ccc2OC)C1` (centres unmarked) [Compound 1006], the pIC50 was 6.00 to 7.00. For `CCN1CCC(O)(COc2cc(Nc3nccc(NC)n3)ccc2OC)C1` (centres unmarked) [Compound 1007], the pIC50 was < 5.00. In the case of `CNc1ccnc(Nc2ccc(OC)c(OCC(C)CN3CCC3)c2)n1` (centres unmarked) [Compound 1008], the pIC50 was 6.00 to 7.00. `CNCC(C)COc1cc(Nc2nccc(NC)n2)ccc1OC` (centres unmarked) [Compound 1009] showed a pIC50 of 5.00 to 6.00. In the case of `CNCCC(C)Oc1cc(Nc2nccc(NC)n2)ccc1OC` (centres unmarked) [Compound 1011], the pIC50 was 5.00 to 6.00. In the case of `CNc1ccnc(Nc2ccc(OC)c(OCCC(C)N3CCC3)c2)n1` (centres unmarked) [Compound 1014], the pIC50 was 5.00 to 6.00. `CNc1ccnc(Nc2ccc(OC)c(OCCC(C)NC)c2)n1` (centres unmarked) [Compound 1016] was tested, and the pIC50 was 5.00 to 6.00.
